Source: patent US6610712B2, “Aryloxy piperidinyl derivatives for the treatment of depression” (Wyeth, priority 2000, dated 2003)
Counter-ions that a name gives are not always drawn.

Legend:
Serotonin Transporter = Serotonin Transporter (Homo sapiens, UniProt P31645); assay: Serotonin transporter binding, [3H]paroxetine; settings: radioligand [3H]paroxetine
5-HT1A = biological target: T1, 5-HT1A (Homo sapiens, UniProt P08908); assay: 5-HT1A receptor binding, [3H]DPAT; design: 5-HT1A [3H]DPAT, % at single concentration: dose or concentration left out as unconfirmed; settings: radioligand [3H]DPAT
T1 sequence (P08908 1-422): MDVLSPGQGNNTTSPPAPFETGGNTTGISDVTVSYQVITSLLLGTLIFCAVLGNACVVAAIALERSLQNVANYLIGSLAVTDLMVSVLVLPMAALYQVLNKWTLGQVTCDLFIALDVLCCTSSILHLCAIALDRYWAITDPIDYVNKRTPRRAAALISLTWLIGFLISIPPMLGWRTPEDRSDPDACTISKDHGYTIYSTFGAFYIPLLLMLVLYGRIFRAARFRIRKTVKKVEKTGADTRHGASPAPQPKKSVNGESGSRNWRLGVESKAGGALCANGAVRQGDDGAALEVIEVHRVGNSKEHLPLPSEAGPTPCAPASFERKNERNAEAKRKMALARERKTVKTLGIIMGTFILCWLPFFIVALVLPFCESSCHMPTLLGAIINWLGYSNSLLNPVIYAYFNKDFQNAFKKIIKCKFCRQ

Chain of Serotonin Transporter (P31645 whole entry): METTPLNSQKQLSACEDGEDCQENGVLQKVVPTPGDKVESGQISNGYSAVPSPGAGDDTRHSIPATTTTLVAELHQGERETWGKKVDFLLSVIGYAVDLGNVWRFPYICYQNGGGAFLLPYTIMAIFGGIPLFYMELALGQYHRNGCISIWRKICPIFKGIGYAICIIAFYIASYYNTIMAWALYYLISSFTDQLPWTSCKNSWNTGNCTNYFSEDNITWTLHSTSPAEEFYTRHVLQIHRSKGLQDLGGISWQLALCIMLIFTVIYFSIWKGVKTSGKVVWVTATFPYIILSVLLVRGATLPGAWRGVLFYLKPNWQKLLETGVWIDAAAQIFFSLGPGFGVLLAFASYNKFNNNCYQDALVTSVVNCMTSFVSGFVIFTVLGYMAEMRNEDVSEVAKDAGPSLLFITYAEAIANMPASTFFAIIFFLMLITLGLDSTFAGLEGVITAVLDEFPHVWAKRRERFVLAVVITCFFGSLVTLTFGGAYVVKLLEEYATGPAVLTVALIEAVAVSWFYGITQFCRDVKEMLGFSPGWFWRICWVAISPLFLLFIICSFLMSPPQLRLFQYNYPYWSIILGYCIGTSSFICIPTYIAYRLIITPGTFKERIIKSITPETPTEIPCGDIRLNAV

Row | Compound | melting point | 5-HT1A [3H]DPAT, % at single concentration (5-HT1A) | Ki (Serotonin Transporter) | Ki (5-HT1A)
1 | C1=C(c2c[nH]c3ccccc23)CCN(CCOc2cccc3c2OCCO3)C1 [Example 4, 3-{1-[2-(2,3-Dihydro-benzo[1,4]dioxan-5-yloxy)-ethyl]-1,2,3,6-tetrahydro-pyridin-4-yl}-1H-indole] |  |  | 0.17 nM | 78.3 nM
2 | 6-Fluoro-3-{1-[2-(2,3-dihydro-benzo[1,4]dioxan-5-yloxy)-ethyl]-1,2,3,6-tetrahydro-pyridin-4-yl}-1H-indole [Example 6] |  |  | 0.15 nM | 83.7 nM
3 | Fc1ccc2[nH]cc(C3=CCN(CCOc4cccc5c4OCCO5)CC3)c2c1 [Example 5, 5-Fluoro-3-{1-[2-(2,3-dihydro-benzo[1,4]dioxan-5-yloxy)-ethyl]-1,2,3,6-tetrahydro-pyridin-4-yl}-1H-indole] |  |  | 1.17 nM | 83.3 nM
4 | Fc1ccc2[nH]cc(CC3CCN(CCOc4cccc5c4OCCO5)CC3)c2c1 [Example 2, 5-Fluoro-3-{1-[2-(2,3-dihydrobenzo[1,4]dioxin-5-yloxy)ethyl]-piperidin-4-ylmethyl}-1H-indole] |  |  | 0.011 nM | 168 nM
5 | COc1ccccc1OCCN1CCC(Cc2c[nH]c3ccc(F)cc23)CC1 [Example 1, 5-Fluoro-3-{1-[2-(2-methoxyphenoxy)ethyl]-piperidin-4-ylmethyl}-1H-indole] |  |  | 0.35 nM | 180 nM
6 | Fc1ccc2[nH]cc(C3=CCN(CCOc4cccc5c4OCCO5)CC3)c2c1 (as salt: oxalate) [Example 5, 5-Fluoro-3-{1-[2-(2,3-dihydro-benzo[1,4]dioxan-5-yloxy)-ethyl]-1,2,3,6-tetrahydro-pyridin-4-yl}-1H-indole] | 195 to 198 °C |  |  | 
7 | C1=C(c2c[nH]c3ccccc23)CCN(CCOc2cccc3c2OCCO3)C1 (as salt: oxalate) [Example 4, 3-{1-[2-(2,3-Dihydro-benzo[1,4]dioxan-5-yloxy)-ethyl]-1,2,3,6-tetrahydro-pyridin-4-yl}-1H-indole] | 85 to 88 °C |  |  | 

More lines, main results first:

Row | melting point | 5-HT1A [3H]DPAT, % at single concentration (5-HT1A) | Compound | Ki (Serotonin Transporter) | Ki (5-HT1A)
8 | 157 to 159 °C |  | Fc1ccc2[nH]cc(CC3CCN(CCOc4cccc5c4OCCO5)CC3)c2c1 (as salt: fumarate) (hydrate or solvate) [Example 2, 5-Fluoro-3-{1-[2-(2,3-dihydrobenzo[1,4]dioxin-5-yloxy)ethyl]-piperidin-4-ylmethyl}-1H-indole] |  | 
9 | 91 °C |  | COc1ccccc1OCCN1CCC(Cc2c[nH]c3ccc(F)cc23)CC1 (as salt: oxalate) (hydrate or solvate) [Example 1, 5-Fluoro-3-{1-[2-(2-methoxyphenoxy)ethyl]-piperidin-4-ylmethyl}-1H-indole] |  | 
10 | 150 to 152 °C |  | Fc1ccc2[nH]cc(CC3CCN(CCOc4ccc5c(c4)CCC5)CC3)c2c1 (as salt: hydrochloride) (hydrate or solvate) [Example 3, 5-Fluoro-3-{1-[2-(indan-5-yloxy)-ethyl]-piperidin-4-ylmethyl}-1H-indole] |  | 
11 |  | 0% @ 0.1 M | Fc1ccc2[nH]cc(CC3CCN(CCOc4ccc5c(c4)CCC5)CC3)c2c1 [Example 3, 5-Fluoro-3-{1-[2-(indan-5-yloxy)-ethyl]-piperidin-4-ylmethyl}-1H-indole] | 2.24 nM | 
